Test results from patent publication US6528484B1, “Insecticidal protein toxins from Photorhabdus” (priority 1993, dated 2003).
Read-outs that look alike come from different tables or passages of the source. Where a SMILES comes first, the peptide text is derived from it. [ ]: non-standard residue; d: D form. The star is where a group is joined. Sta = CC(C)C[C@H](N)[C@@H](O)CC(=O)O; Isovaleryl = CC(C)CC(=O)*

Legend:
[1] = tested on: neonate Diabrotica undecimpunctata howardi (Southern corn rootworm, SCR); assay: SCR bioassay on artificial diet (Example 13; used in Examples 14-16); type: in vivo
[2] = tested on: protease(s) found in the Photorhabdus broth; type: biochemical, Photorhabdus luminescens; settings: for Corrected Flu. Units (Fluorescence Units - background) / Percent Inhibition relative to protease activity at pH 8.0: pH 8
Method: Protease Inhibition and Classification Assays: Protease assays were performed using FITC-casein dissolved in water as substrate (0.08% final assay concentration). Proteolysis reactions were performed at 25° C. for 1 h in the appropriate buffer with 25 μl of Photorhabdus broth (150 μl total reaction volume). Samples were also assayed in the presence and absence of dithiothreitol. After incubation, an equal volume of 12% trichloroacetic acid was added to precipitate undigested protein. Following precipitation for 0.5 h and subsequent centrifugation, 100 μl of the supernatant was placed into a 96-well microtiter plate and the pH of the solution was adjusted by addition of an equal volume of 4N NaOH. Proteolysis was then quantitated using a Fluoroskan II fluorometric plate reader at excitation and emission wavelengths of 485 and 538 nm, respectively. Protease activity was tested over a range from pH 5.0-10.0 in 0.5 units increments. The following buffers were used at 50 mM final concentration: sodium acetate (pH 5.0-6.5); Tris-HCL (pH 7.0-8.0); and bis-Tris propane (pH 8.5-10.0). […] The protease inhibitors used included E-64 (L-trans-expoxysaccinylleucylamido[4-,-guanidino]-butane), 3,4 dichloroisocoumarin, Leupeptin, pepstatin, amastatin, ethylenediaminetetraacetic acid (EDTA) and 1,10 phenanthroline.

[3] = tested on: protease activity of three day W-14 crude broth; assay: FITC-casein protease assay, three day W-14 crude broth; type: biochemical, Photorhabdus luminescens; settings: inhibitor 0.5-1.0 mg/ml per reaction
Method: (§1) Activity assays of the different proteases in W-14 day three culture broth were performed using FITC-casein dissolved in water as substrate (0.02% final assay concentration). Proteolysis experiments were performed at 37° C. for 0-0.5 h in 0.1M Tris-HCl (pH 8.0) with different protein fractions in a total volume of 0.15 ml. Reactions were terminated by addition of an equal volume of 12% trichloroacetic acid (TCA) dissolved in water. After incubation at room temperature for 0.25 h, samples were centrifuged at […] for 0.25 h and 0.10 ml aliquots were removed and placed into 96-well microtiter plates. The solution was then neutralized by the addition of an equal volume of 2 N sodium hydroxide, followed by quantitation using a Fluoroskan II fluorometric plate reader with excitation and emission wavelengths of 485 and 538 nm, respectively. Activity measurements were performed using FITC-Casein with different protease concentrations at 37° C. for 0-10 min. A unit of activity was arbitrarily defined as the amount of enzyme needed to produce 1000 fluorescent units/min and specific activity was defined as units/mg of protease.
(§2) Inhibition studies were performed using two zinc-metalloprotease inhibitors; 1,10 phenanthroline and N-(a-rhamnopyranosyloxyhydroxyphosphinyl)-Leu-Trp(phosphoramidon) with stock solutions of the inhibitors dissolved in 100% ethanol and water, respectively. […]

[4] = tested on: 58 kDa protease; assay: Inhibition of purified 58 kDa protease; type: biochemical, Photorhabdus luminescens
Method: as §1, §2

[5] = tested on: 41/38 kDa protease; assay: Inhibition of purified 41/38 kDa protease; type: biochemical, Photorhabdus luminescens
Method: as §1, §2

[6] = inhibitor 0.5 μg/μl final concentration, Day 1 production broth

For “toxin B: 860 kDa complex purified from activity peak B; major peptides TcbAii and TcbAiii (or intact TcbA)”, the “LD50 against SCR after SCR gut content treatment” value ([1]; 40 μg toxin with 50 μl SCR gut content, 37° C. overnight) was “about 70 ng”, the “fold increase of SCR activity by SCR gut content treatment” value ([1]; LD50 treated against untreated) was 10 fold and the “LD50 against SCR” value ([1]; in vivo) was “around 700 ng”. The “activity against Southern corn root worm” value ([1]; in vivo) was “active” and the “toxin activity after protease K treatment” value ([1]; separate experiment) was “completely eliminated toxin activity”.

With “toxin A: 860 kDa complex purified from activity peak A; major peptides TcdAii and TcdAiii” the “activity against Southern corn root worm” value ([1]; in vivo) was “active”.

`CC(C)C[C@@H](N)[C@H](O)C(=O)N[C@H](C(=O)N[C@H](C(=O)N[C@@H](CC(=O)O)C(=O)O)C(C)C)C(C)C` [Amastatin, amastatin] was tested, and the “Corrected Flu. Units (Fluorescence Units - background)” value (from here on “Corrected Flu. Units”) [2, 6] was 12474 Fluorescence Units and the “Percent Inhibition relative to protease activity at pH 8.0” value [2, 6] was 4%.

With `CC(C)C[C@H](NP(=O)(O)O[C@@H]1O[C@@H](C)[C@H](O)[C@@H](O)[C@H]1O)C(=O)N[C@@H](Cc1c[nH]c2ccccc12)C(=O)O` [phosphoramidon, N-(a-rhamnopyranosyloxyhydroxyphosphinyl)-Leu-Trp] the “reduction of protease activity of three day W-14 crude broth” value ([3]; not further reduced with additional inhibitor) was “about 56%”, the “inhibition of purified 58 kDa protease” value [4] was “insensitive” and the “inhibition of purified 41/38 kDa protease” value [5] was “inhibited”.

With `CC(C)C[C@H](NC(=O)[C@H]1O[C@@H]1C(=O)O)C(=O)NCCCCN=C(N)N` (relative stereo) [Strain E-64, L-trans-expoxysaccinylleucylamido[4-,-guanidino]-butane] the “Corrected Flu. Units” value [2] was 14259 Fluorescence Units and the “Percent Inhibition relative to protease activity at pH 8.0” value [2] was 0%.

`CC(=O)N[C@@H](CC(C)C)C(=O)N[C@@H](CC(C)C)C(=O)N[C@H](C=O)CCCNC(=N)N` [Leupeptin] was tested, and the “Corrected Flu. Units” value [2, 6] was 13074 Fluorescence Units and the “Percent Inhibition relative to protease activity at pH 8.0” value [2, 6] was 0%.

For `CC(C)CC(=O)N[C@H](C(=O)N[C@H](C(=O)N[C@@H](CC(C)C)[C@@H](O)CC(=O)N[C@@H](C)C(=O)N[C@@H](CC(C)C)[C@@H](O)CC(=O)O)C(C)C)C(C)C` [Pepstatin, pepstatin] (Isovaleryl-VV[Sta]A[Sta]-OH), the “Corrected Flu. Units” value [2, 6] was 13441 Fluorescence Units and the “Percent Inhibition relative to protease activity at pH 8.0” value [2, 6] was 0%.

With `O[C@H](CS)[C@H](O)CS` (racemic) [DTT, dithiothreitol] the “effect on protease activity” value ([2]; samples assayed in presence and absence of dithiothreitol) was “did not have any effect”.

With `c1cnc2c(c1)ccc1cccnc12` [1,10 Phenanthroline, 1,10 phenanthroline] the “inhibition of all protease activity of crude broth” value ([2]; final concentration of 50 μg) was “complete inhibition”, the IC50 ([2]; in 100 μl of a 2 mg/ml crude broth solution) was 5 µg and the “Corrected Flu. Units” value [2, 6] was 15 Fluorescence Units. The “Percent Inhibition relative to protease activity at pH 8.0” value [2, 6] was 99%, the “effect on protease activity of three day W-14 crude broth” value [3] was “complete elimination of all protease activity” and the “inhibition of purified 58 kDa protease” value [4] was “completely inhibited”. For the same compound, the “inhibition of purified 41/38 kDa protease” value [5] was “completely inhibited”.

With “TcbA: peptide TcbA, SEQ ID NO:12; in Table 24 bioassay lines the TcbA-enriched toxin B complex fraction of W-14 broth” the “SCR Weight (mg/insect), average weight of live insect after 5 days on diet” value ([1]; 38 kDa protease treatment) was 0.1 mg/insect, the “LD50 (μg protein)” value ([1]; 38 kDa protease treatment, 37° C., 90 min) was 0.52 μg protein and the “LD50 (μg protein)” value ([1]; Control (protease omitted)) was 2.1 μg protein. The “SCR Weight (mg/insect), average weight of live insect after 5 days on diet” value ([1]; Control (protease omitted)) was 0.2 mg/insect and the “fold increase of SCR insecticidal activity by 38 kDa protease treatment” value ([1]; comparison of activity in several dilutions) was 3 to 4 fold.

In the case of `O=c1oc(Cl)c(Cl)c2ccccc12` [3,4 Dichloroisocoumarin, 3,4 dichloroisocoumarin], the “Corrected Flu. Units” value [2, 6] is reported as 7956 Fluorescence Units and the “Percent Inhibition relative to protease activity at pH 8.0” value [2, 6] is reported as 39%.
